Measured values reported in US9243270B2, “Method for producing metabolites from omeprazole using bacterial cytochrome P450, and composition for same” (priority 2012, dated 2016).
Entries after “also recorded” stand apart in the source; their conditions may differ.

Legend:
[1] = system: CYP102A1 (P450 BM3); conditions: bacterial wild-type CYP102A1 and mutants, 100 μM omeprazole, NADPH-generating system
Procedure: (§1) CYP102A1 50 pmol and 100 μM substrates were put into 100 mM of a potassium phosphate buffer (pH 7.4) 0.25 me and were subjected to a typical steady state reaction. In order to initiate the reaction, an NADPH-generating system (final concentration: 10 mM glucose 6-phosphate, 0.5 mM NADP^+, and 1 IU yeast glucose 6-phosphate dehydrogenase per 1 me) was added. 20 mM omeprazole solution was prepared by DMSO, and diluted with an enzyme reaction solution so that an organic solvent has the final concentration of 1%(v/v) or less. For measuring an activity of human CYP2C19, 50 pmol P450, 100 pmol NADPH-P450 reductase (CPR), 100 pmol cytochrome b5 and 45 μM L-α-dilauroyl-sn-glycero-3-phosphocholine (DLPC) were used instead of 50 pmol CYP102A1. The reaction solution was reacted at 37 for 30 minutes, and the reaction was terminated by dichloromethane prepared in a cold state with twice amounts of ice.
(§2) The reaction mixture was centrifuged to remove the supernatant, the solvent thereof was evaporated under nitrogen gas (see Vickers et al., 1990), and the obtained mixture was analyzed by HPLC (see Piver et al., 2004). A sample (30 μl) was injected into Gemini C18 column (4.6 mm×150 mm, 5 μm, Phenomenex, Torrance, Calif.). 30% acetonitrile was used as a mobile phase.

[2] = target: human CYP2C19 (Homo sapiens, UniProt P33261); assay: Oxidation of omeprazole by human CYP2C19, metabolites by HPLC and LC-MS; format: in vitro ADME; conditions: human CYP2C19, 100 μM omeprazole, NADPH-generating system, 37° C., 30 minutes
Chain of human CYP2C19 (P33261 whole entry): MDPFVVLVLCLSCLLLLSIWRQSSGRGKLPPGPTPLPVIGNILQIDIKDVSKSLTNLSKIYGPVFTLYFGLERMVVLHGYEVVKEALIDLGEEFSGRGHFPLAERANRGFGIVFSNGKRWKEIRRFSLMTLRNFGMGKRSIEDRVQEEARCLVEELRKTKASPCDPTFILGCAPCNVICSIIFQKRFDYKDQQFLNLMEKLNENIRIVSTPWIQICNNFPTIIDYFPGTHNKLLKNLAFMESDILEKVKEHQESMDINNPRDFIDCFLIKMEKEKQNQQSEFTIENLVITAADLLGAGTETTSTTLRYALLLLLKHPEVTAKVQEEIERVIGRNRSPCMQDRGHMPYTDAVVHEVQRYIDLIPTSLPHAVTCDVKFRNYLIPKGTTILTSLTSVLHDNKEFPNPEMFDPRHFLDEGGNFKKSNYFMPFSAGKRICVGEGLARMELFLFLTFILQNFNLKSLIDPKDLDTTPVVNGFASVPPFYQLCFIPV
Procedure: as §1, §2

[3] = Total turnover number (TTN) of omeprazole oxidation by CYP102A1 enzymes, HPLC; format: biochemical, Bacillus megaterium; conditions: 0.1 mM to 2 mM omeprazole, 30 minutes up to 5 hours, NADPH-generating system
Procedure: 30% acetonitrile was used as a mobile phase.
It could be confirmed from the results of FIG. 5 that the turnover number of the wild-type CYP102A1, 17 kinds of mutants thereof, and 6 kinds of mutant kimeras varied at a large range. In addition, the total turnover number (TTNs) (mol product/mol catalyst) of the CYP102A1 mutant was investigated. In order to measure TTNs of the CYP102A1 mutant, 0.1 mM to 2 mM omeprazole was used, and the reaction was performed with an interval from 30 minutes up to 5 hours. The production rate of the omeprazole metabolite was determined by HPLC.

Molecule | main product produced from omeprazole [1] | main metabolites produced from omeprazole [2] | total turnover number (TTNs), activity towards omeprazole [3]
COc1ccc2[nH]c([S+]([O-])Cc3ncc(C)c(OC)c3C)nc2c1 (racemic) [omeprazole] | 5′-hydroxyomeprazole | 3′-hydroxyomeprazole and 5′-hydroxyomeprazole | 
wild-type CYP102A1: bacterial cytochrome P450 BM3 (CYP102A1) from Bacillus megaterium, SEQ ID NO: 16 (protein) MTIKEMPQPKTFGELKNLPLLNTDKPVQALMKIADELGEIFKFEAPGRVTRYLSSQRLIKEACDESRFDKNLSQALKFVRDFAGDGLFTSWTHEKNWKKAHNILLPSFSQQAMKGYHAMMVDIAVQLVQKWERLNADEHIEVPEDMTRLTLDTIGLCGFNYRFNSFYRDQPHPFITSMVRALDEAMNKLQRANPDDPAYDENKRQFQEDIKVMNDLVDKIIADRKASGEQSDDLLTHMLNGKDPETGEPLDDENIRYQIITFLIAGHETTSGLLSFALYFLVKNPHVLQKAAEEAARVLVDPVPSYKQVKQLKYVGMVLNEALRLWPTAPAFSLYAKEDTVLGGEYPLEKGDELMVLIPQLHRDKTIWGDDVEEFRPERFENPSAIPQHAFKPFGNGQRACIGQQFALHEATLVLGMMLKHFDFEDHTNYELDIKETLTLKPEGFVVKAKSKKIPLGGIPSPSTEQSAKKVRKKAENAHNTPLLVLYGSNMGTAEGTARDLADIAMSKGFAPQVATLDSHAGNLPREGAVLIVTASYNGHPPDNAKQFVDWLDQASADEVKGVRYSVFGCGDKNWATTYQKVPAFIDETLAAKGAENIADRGEADASDDFEGTYEEWREHMWSDVAAYFNLDIENSEDNKSTLSLQFVDSAADMPLAKMHGAFSTNVVASKELQQPGSARSTRHLEIELPKEASYQEGDHLGVIPRNYEGIVNRVTARFGLDASQQIRLEAEEEKLAHLPLAKTVSVEELLQYVELQDPVTRTQLRAMAAKTVCPPHKVELEALLEKQAYKEQVLAKRLTMLELLEKYPACEMKFSEFIALLPSIRPRYYSISSSPRVDEKQASITVSVVSGEAWSGYGEYKGIASNYLAELQEGDTITCFISTPQSEFTLPKDPETPLIMVGPGTGVAPFRGFVQARKQLKEQGQSLGEAHLYFGCRSPHEDYLYQEELENAQSEGIITLHTAFSRMPNQPKTYVQHVMEQDGKKLIELLDQGAHFYICGDGSQMAPAVEATLMKSYADVHQVSEADARLWLQQLEEKGRYAKDVWAG |  |  | the activity with respect to the omeprazole was hardly shown; also recorded: hardly had an activity with respect to omeprazole
